How the values were obtained:
MCF7 = assay: Antiproliferative activity against human MCF7 cells assessed as reduction in cell viability incubated for 96 hrs by MTT assay; conditions: MCF7, 96 h
[1] = Cytotoxicity against human L02 cells assessed as reduction in cell viability incubated for 96 hrs by MTT assay; format: toxicity, cell-based
MDA-MB-231 = assay: Antiproliferative activity against human MDA-MB-231 cells assessed as reduction in cell viability incubated for 96 hrs by MTT assay; conditions: MDA-MB-231, 96 h
A549 = assay: Antiproliferative activity against human A549 cells assessed as reduction in cell viability incubated for 96 hrs by MTT assay; conditions: A549, 96 h
MDA-MB-468 = assay: Antiproliferative activity against human MDA-MB-468 cells assessed as reduction in cell viability incubated for 96 hrs by MTT assay; conditions: MDA-MB-468, 96 h

| IC50 (MCF7) [µM] | IC50 (MDA-MB-231) [µM] | IC50 (A549) [µM] | IC50 (MDA-MB-468) [µM] | SMILES | IC50 at 96 h [1] [µM] |
| --- | --- | --- | --- | --- | --- |
| > 20 | > 20 | > 20 | > 20 | CCC(=O)NC(Nc1nc(Nc2cc(OC)cc(OC)c2)c2cc[nH]c2n1)C(Cl)(Cl)Cl (stereo not given) | > 20 |
| > 20 | > 20 | > 20 | > 20 | CCCCCC(=O)NC(Nc1nc(Nc2cc(OC)cc(OC)c2)c2cc[nH]c2n1)C(Cl)(Cl)Cl (stereo not given) | > 20 |
| > 20 | > 20 | > 20 | > 20 | CCC(=O)NC(Nc1nc(Nc2ccc(OC)c(OC)c2)c2cc[nH]c2n1)C(Cl)(Cl)Cl (stereo not given) | > 20 |
| 6.71 | 5.97 | 6.66 | 10.2 | O=C(NC(Nc1nc(Nc2ccc(C(F)(F)F)cc2)c2cc[nH]c2n1)C(Cl)(Cl)Cl)C1CC1 (stereo not given) | 16.1 |
| 6.97 | 6.15 | 8.36 | 12 | CCCCCC(=O)NC(Nc1nc(Nc2ccc(C(F)(F)F)cc2)c2cc[nH]c2n1)C(Cl)(Cl)Cl (stereo not given) | 14.4 |
| 16.7 | 8.25 | 10.8 | 15.2 | CCCCCC(=O)NC(Nc1nc(Nc2cc(OC)c(OC)c(OC)c2)c2cc[nH]c2n1)C(Cl)(Cl)Cl (stereo not given) | 12.3 |
| 17.7 | 12.7 | 6.92 | > 20 | CCC(=O)NC(Nc1nc(Nc2ccc(C(F)(F)F)cc2Cl)c2cc[nH]c2n1)C(Cl)(Cl)Cl (stereo not given) | 14.5 |
| > 20 | > 20 | > 20 | > 20 | CCC(=O)NC(Nc1nc(Nc2ccc(OC)c(Cl)c2)c2cc[nH]c2n1)C(Cl)(Cl)Cl (stereo not given) | > 20 |
| > 20 | 19.8 | > 20 | > 20 | CCC(=O)NC(Nc1nc(Nc2ccc(C(F)(F)F)nc2)c2cc[nH]c2n1)C(Cl)(Cl)Cl (stereo not given) | > 20 |
| > 20 | > 20 | > 20 | > 20 | CCC(=O)NC(n1cnc2c(Nc3cc(OC)cc(OC)c3)nc(N)nc21)C(Cl)(Cl)Cl (stereo not given) | > 20 |
| 10.2 | 9.56 | 10.4 | 11.3 | CCC(=O)NC(n1cnc2c(Nc3ccc(C(F)(F)F)cc3)nc(N)nc21)C(Cl)(Cl)Cl (stereo not given) | 12.3 |
| > 20 | > 20 | > 20 | > 20 | CCC(=O)NC(n1cnc2c(Nc3ccc(OC)cc3)nc(N)nc21)C(Cl)(Cl)Cl (stereo not given) | > 20 |
| > 20 | > 20 | > 20 | > 20 | CCCc1ccc(Nc2nc(NC(NC(=O)CC)C(Cl)(Cl)Cl)nc3[nH]ccc23)cc1 (stereo not given) | > 20 |
| > 20 | > 20 | > 20 | > 20 | CCC(=O)NC(Nc1nc(Nc2ccc(OC)cc2)c2cc[nH]c2n1)C(Cl)(Cl)Cl (stereo not given) | > 20 |
| 11.8 | 16.1 | 11.3 | 18.1 | CCC(=O)NC(Nc1nc(Nc2ccc(OC(F)(F)F)cc2)c2cc[nH]c2n1)C(Cl)(Cl)Cl (stereo not given) | 25.3 |
| 9.27 | 10.1 | 7.52 | > 20 | CCC(=O)NC(Nc1nc(Nc2ccc(OC(F)(F)F)c(F)c2)c2cc[nH]c2n1)C(Cl)(Cl)Cl (stereo not given) | 7.55 |
| 6.58 | 7.32 | 7.32 | 9.62 | CCCC(=O)NC(Nc1nc(Nc2ccc(C(F)(F)F)cc2)c2cc[nH]c2n1)C(Cl)(Cl)Cl (stereo not given) | 10.2 |

| IC50 (MCF7) [µM] | IC50 (MDA-MB-231) [µM] | IC50 (A549) [µM] | IC50 (MDA-MB-468) [µM] | SMILES | IC50 at 96 h [1] [µM] |
| --- | --- | --- | --- | --- | --- |
| > 20 | > 20 | > 20 | > 20 | CCC(=O)NC(n1cnc2c(Nc3ccc(OC)c(Cl)c3)nc(N)nc21)C(Cl)(Cl)Cl (stereo not given) | > 20 |
| > 20 | > 20 | > 20 | > 20 | CCC(=O)NC(n1cnc2c(Nc3ccc4c(c3)OCO4)nc(N)nc21)C(Cl)(Cl)Cl (stereo not given) | > 20 |
| 8.17 | 8.69 | 9.3 | 9.15 | O=C(NC(Nc1nc(Nc2ccc(C(F)(F)F)cc2)c2cc[nH]c2n1)C(Cl)(Cl)Cl)C1CCCCC1 (stereo not given) | 11.6 |
| > 20 | > 20 | > 20 | > 20 | CCC(=O)NC(Nc1nc(Nc2ccc3scnc3c2)c2cc[nH]c2n1)C(Cl)(Cl)Cl (stereo not given) | > 20 |
| 13.6 | 12.6 | 11.2 | 14.1 | CCC(=O)NC(Nc1nc(Nc2ccc(C(F)(F)F)cc2F)c2cc[nH]c2n1)C(Cl)(Cl)Cl (stereo not given) | 14 |
| 7.58 | 7.36 | 7.26 | 13.2 | CCCCC(=O)NC(Nc1nc(Nc2ccc(C(F)(F)F)cc2)c2cc[nH]c2n1)C(Cl)(Cl)Cl (stereo not given) | 8.85 |
| 14.7 | 8.81 | 11.6 | 15.9 | CCC(=O)NC(Nc1nc(Nc2cc(OC)c(OC)c(OC)c2)c2cc[nH]c2n1)C(Cl)(Cl)Cl (stereo not given) | 9.01 |
| > 20 | > 20 | > 20 | > 20 | O=C(NC(Nc1nccc(Nc2ccc(C(F)(F)F)cc2)n1)C(Cl)(Cl)Cl)C1CC1 (stereo not given) | > 20 |
| 6.21 | 7.79 | 7.98 | 10.1 | CCC(=O)NC(Nc1nc(Nc2ccc(C(F)(F)F)cc2)c2cc[nH]c2n1)C(Cl)(Cl)Cl (stereo not given) | 12.8 |
| 19.4 | 10.5 | 14.3 | > 20 | CCCCC(=O)NC(Nc1nc(Nc2cc(OC)c(OC)c(OC)c2)c2cc[nH]c2n1)C(Cl)(Cl)Cl (stereo not given) | > 20 |
| 19.6 | 9.91 | > 20 | 17.2 | CCCC(=O)NC(Nc1nc(Nc2cc(OC)c(OC)c(OC)c2)c2cc[nH]c2n1)C(Cl)(Cl)Cl (stereo not given) | 14.4 |
| > 20 | > 20 | > 20 | > 20 | CCCCC(=O)NC(Nc1nc(Nc2cc(OC)cc(OC)c2)c2cc[nH]c2n1)C(Cl)(Cl)Cl (stereo not given) | > 20 |
| 13.7 | 11.4 | 10.8 | 12.3 | COc1cc(Nc2nc(NC(NC(=O)C3CCCCC3)C(Cl)(Cl)Cl)nc3[nH]ccc23)cc(OC)c1OC (stereo not given) | 14 |
| 7.2 | 8.07 | 8.79 | 10.4 | CCC(=O)NC(Nc1nc(Nc2cc(F)c(OC)c(F)c2)c2cc[nH]c2n1)C(Cl)(Cl)Cl (stereo not given) | 14.5 |
| > 20 | > 20 | > 20 | > 20 | CCCC(=O)NC(Nc1nc(Nc2cc(OC)cc(OC)c2)c2cc[nH]c2n1)C(Cl)(Cl)Cl (stereo not given) | > 20 |
| > 20 | > 20 | > 20 | > 20 | COc1cc(Nc2nc(NC(NC(=O)C3CCCCC3)C(Cl)(Cl)Cl)nc3[nH]ccc23)cc(OC)c1 (stereo not given) | > 20 |
